Measured values published in patent publication US20190328752A1, “COMPOUNDS FOR THE TREATMENT OF NIEMANN-PICK DISEASE TYPE C1” (UNIVERSITEIT MAASTRICHT, priority 2016, published 2019).
Like-named read-outs stand apart in the source and are kept apart here.

Tests used:
[1] = humans, cited from earlier work
[2] = system: NPC1WT BMDMs; test: Gene expression of inflammatory mediators in oxLDL/LPS-stimulated BMDMs, wild type; assay type: cell-based, mice; conditions: 0.6 μM sitostanol; p=0.028; FIG. 1B
Protocol: (§1) Bone-marrow derived cells (BMDCs) were isolated from tibea and femurs of NPC1 wild type (WT) and mutant mice on a C57BL/6 background. BMDCs were cultured for 8-9 days in RPMI-1640 (GIBCO Invitrogen, Breda, The Netherlands) with 10% heat-inactivated fetal calf serum (Bodinco B. V. Alkmaar, The Netherlands), penicillin (100 U/ml), streptomycin (100 μg/ml) and L-glutamine (2 mM) (all GIBCO invitrogen, Breda, The Netherlands) enriched with 20% L929-conditioned medium (LCM) to generate bone marrow-derived macrophages (BMDMs). After attachment, the BMDMs were seeded at 350,000 cells per well in 24 wells plates and incubated with oxLDL for 24. After the oxLDL stimulation, the cells were washed and incubated with cyclodextrin (carrier control) or 0.6 μM sitostanol for 4 hours. The BMDMs were subsequently washed and stimulated with 100 ng/ml LPS for 4 hours to generate an inflammatory response. Finally, BMDMs were lysed for RNA isolation. Gene expression analysis of inflammatory (TNFα, Arginase 1 and inducible NOS), anti-inflammatory (IL-10) and lysosomal cholesterol trafficking (NPC1 and NPC2) genes was performed. Furthermore, the supernatant was frozen until protein expression analysis of the pro-inflammatory TNFα was performed by Enzyme-Linked Immunosorbent Assay (ELISA).

[3] = system: NPC1mut BMDMs; test: TNFα secretion (ELISA) by oxLDL/LPS-stimulated BMDMs, mutant; assay type: cell-based, mice; conditions: 0.6 μM sitostanol 4 hours after oxLDL, then LPS; vs carrier control; p=0.000; FIG. 1A
Protocol: as §1, with “Furthermore, the supernatant was frozen until protein expression analysis of the pro-inflammatory TNFα was performed by Enzyme-Linked Immunosorbent Assay (ELISA).” left out
(§2) Mouse TNFα secreted protein levels were determined by using the TNFα ELISA kit (mouse TNFα ELISA Ready-SET-Go!, eBioscience, San Diego, Calif.). […] Optical density (OD) was measured at 450 nm by using a spectrophotometer and TNFα concentrations were determined.

[4] = system: NPC1WT BMDMs; test: TNFα secretion (ELISA) by oxLDL/LPS-stimulated BMDMs, wild type; assay type: cell-based, mice; conditions: 0.6 μM sitostanol 4 hours after oxLDL, then LPS; vs carrier control; p=0.000; FIG. 1A
Protocol: as §1, with “Furthermore, the supernatant was frozen until protein expression analysis of the pro-inflammatory TNFα was performed by Enzyme-Linked Immunosorbent Assay (ELISA).” left out
as §2

[5] = system: NPC1mut BMDMs; test: Gene expression of inflammatory mediators in oxLDL/LPS-stimulated BMDMs, mutant; assay type: cell-based, mice; conditions: FIG. 1B
Protocol: as §1

[6] = in vivo; cited from earlier work

Molecule | plasma concentration ([1]; 3 grams per day) [microgram per dl] | plasma concentration ([1]; 9 grams per day) [microgram per dl] | gene expression of IL-10 [2] | TNFα secretion [3] | TNFα secretion [4] | gene expression of arginase 1 (M2 macrophage marker) ([5]; 0.6 μM sitostanol vs carrier control, p=0.000) | gene expression of Tnfα ([5]; 0.6 μM sitostanol vs carrier control, p=0.136) | iNOS/arginase 1 gene expression ratio ([5]; 0.6 μM sitostanol vs control-treated NPC1mut BMDMs, p=0.074) | ability to cross the blood brain barrier [6]
CC[C@H](CC[C@@H](C)[C@H]1CC[C@H]2[C@@H]3CC[C@H]4C[C@@H](O)CC[C@]4(C)[C@H]3CC[C@]12C)C(C)C [sitostanol] | 40.9 | 57.2 | increased | significantly reduced | significantly reduced | significantly increased | trend towards reduced expression | trend towards a reduced | 
cyclodextrin |  |  |  |  |  |  |  |  | inability of cyclodextrin to cross the blood brain barrier
